In patent US10876096B2, “Cell culture medium for enhanced hepatocyte function” (Corning Incorporated, priority 2012, dated 2020):

How the values were obtained:
liver cells = test: Drug metabolism activity / global hepatic function of liver cells with other BTK inhibitors and PLK siRNA; format: cell-based
Text: […] The broad enhancement of hepatic function seen with LFM-A13 is not observed with these structurally unrelated BTK inhibitors.

BTK = BTK (Homo sapiens, UniProt Q06187); conditions: reported, U.S. Pat. No. 6,303,652; cited from earlier work
Chain of BTK (Q06187 whole entry, species assumed): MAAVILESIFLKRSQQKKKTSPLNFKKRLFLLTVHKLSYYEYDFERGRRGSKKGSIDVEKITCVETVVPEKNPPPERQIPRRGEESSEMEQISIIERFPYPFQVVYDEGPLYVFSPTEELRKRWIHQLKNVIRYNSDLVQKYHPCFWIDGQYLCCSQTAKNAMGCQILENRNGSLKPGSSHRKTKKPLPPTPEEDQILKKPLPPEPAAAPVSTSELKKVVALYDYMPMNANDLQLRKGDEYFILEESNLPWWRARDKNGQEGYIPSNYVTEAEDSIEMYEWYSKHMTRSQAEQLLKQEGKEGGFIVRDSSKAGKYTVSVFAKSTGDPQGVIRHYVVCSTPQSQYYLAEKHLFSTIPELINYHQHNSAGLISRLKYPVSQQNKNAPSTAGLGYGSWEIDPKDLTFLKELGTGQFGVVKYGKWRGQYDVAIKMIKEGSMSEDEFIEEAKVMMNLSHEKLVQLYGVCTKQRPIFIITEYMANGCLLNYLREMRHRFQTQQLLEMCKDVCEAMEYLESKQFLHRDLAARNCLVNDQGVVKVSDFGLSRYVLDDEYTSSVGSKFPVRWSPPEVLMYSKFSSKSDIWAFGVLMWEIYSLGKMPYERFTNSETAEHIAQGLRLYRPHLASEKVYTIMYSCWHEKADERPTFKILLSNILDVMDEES

Polo-like kinase (PLK) = conditions: stated as known; cited from earlier work
[1] = test system: human embryonic stem cells (hESCs) derived hepatocytes; test: Immunostaining of hepatic markers in hESC derived hepatocytes; format: cell-based; conditions: Corning hepatocyte medium, 10 μM, 7 days, versus absence (FIG. 9)
Experimental: The effects of LFM-A13 on human embryonic stem cells (hESCs) derived hepatocytes are evaluated. Briefly, hESCs are committed to the hepatocyte lineage using methods known to those skilled in the art and then are cultured in Corning hepatocyte medium in the presence or absence of 10 μM LFM-A13. After 7 days, the stem cell derived hepatocytes are immunostained with primary antibodies to detect expression of hepatocyte proteins; (b) to test for the presence of albumin (ALB), a hepatic precursor marker; and (c) to test for the presence of multidrug resistance-associated protein 2 (MRP2), a member of the superfamily of ATP-binding cassette (ABC) transporters and a marker for hepatic function. Nuclei of cells are counterestained with 4′,6-diamidino-2-phenylindole dihydrochloride (DAPI) to visualize all cells (FIG. a). As depicted, hESCs cultured in the absence of LFM-A13 (left column) have low levels of hepatic markers (ALB and MRP2). In contrast, hESCs cultured in the presence of LFM-A13 (right column) have higher levels of hepatic markers (ALB and MRP2).

[2] = test system: mRNA for drug metabolism enzymes and hepatic proteins; test: Relative mRNA levels by real-time PCR in primary human hepatocytes; format: cell-based; conditions: 10 μM
Experimental: The effects of LEF, LFM, and LFM-A13 on gene expression are tested. Briefly, primary human hepatocytes cultured on collagen I coated surface are incubated with Corning hepatocyte medium containing vehicle control, 10 μM LEF, 10 μM LFM, and 10 μM LFM-A13, respectively. At the end of 48-hour incubation, total RNA is isolated and relative mRNA levels are quantified using real-time PCR. The results are shown in FIG. 6, where CYP is cytochrome P450 enzyme, SULT is sulfotransferase, UGT is UDP-glucuronosyltransferase, ABC is ATP-binding cassette transporters, AHR is aryl hydrocarbon receptor, CAR is constitutive androstene receptor, and PXR is pregnenolone x-receptor.
The effect of LFMA-13 on levels of mRNA encoding a wider variety of drug metabolism enzymes and other proteins of primary human hepatocytes is tested. Briefly, primary human hepatocytes cultured on collagen I coated surface are incubated with Corning hepatocyte medium containing vehicle control and 10 μM LFM-A13, respectively. At the end of 48-hour incubation, total RNA is isolated and relative mRNA levels are quantified using real-time PCR. The results are shown in FIG. 7, where ABC is ATP-binding cassette transporters, CYP is cytochrome P450 enzyme, SLC is solute carrier transporter, SULT is sulfotransferase, UGT is UDP-glucuronosyltransferase, GST is glutathione S-transferase, AHR is aryl hydrocarbon receptor, FOXO is forkhead box receptors, HNF is hepatic nuclear factor, NCO is nuclear receptor coactivator, NR is nuclear receptor, PPARGC1A is peroxisome proliferator-activated receptor gamma coactivator 1-alpha, RXR is retinoid X receptor, and VDR is vitamin D receptor.

[3] = test system: hepatic markers (ALB, AFP, CYP3A4, CYP7A1, PGC1a); test: Real-time PCR mRNA expression of hepatic markers in differentiated hESCs; format: cell-based, human; conditions: collagen coated plates with or without Matrigel overlay (FIG. 11)
Experimental: The effect of LFM-A13 on rifampicin-induced CYP3A4 activity and on mRNA expression of a variety of hepatic markers is also determined on the differentiated hESCs. […] In FIG. 11, ALB is albumin, AFP is alpha-fetoprotein, CYP3A4 is cytochrome p450 3A4, CYP7A1 is cytochrome p450 7A1, and PGC1a is […] (COL=collagen I coated plate; MOL=Matrigel overlay).

Structure (SMILES): CC1=C(O)C(=O)[C@@H]2O[C@@H]2C1=O [Terreic acid]
- broad enhancement of hepatic function / global hepatic enhancement (liver cells): not observed

Structure (SMILES): C/C(O)=C(/C#N)C(=O)Nc1cc(Br)ccc1Br [LFM-A13, α-Cyano-β-Hydroxy-β-Methyl-N-(2,5-Dibrobophenyl)Propenamide]
- BTK inhibition (BTK): potent BTK inhibitor
- PLK inhibition (Polo-like kinase (PLK)): Polo-like kinase (PLK) inhibitor
- level of hepatic marker MRP2, immunostaining [1]: higher levels
- level of hepatic marker albumin (ALB), immunostaining [1]: higher levels
- AHR mRNA level ([2]; 48 h (FIG. 6)): greatly increased
- CYP1A2 mRNA level ([2]; 48 h (FIG. 6)): greatly increased
- CYP2B6 mRNA level ([2]; 48 h (FIG. 6)): greatly increased
- CYP3A4 mRNA level ([2]; 48 h (FIG. 6)): greatly increased
- UGT1A1 mRNA level ([2]; 48 h (FIG. 6)): greatly increased
- mRNA levels of some of the ABC transporters ([2]; 48 h (FIG. 6)): greatly increased
- mRNA levels of a wide variety of drug metabolism enzymes, including many CYPs ([2]; 48 h (FIG. 7)): increased levels
- expression of hepatic markers (mRNA) [3]: enhanced expression
